Patent US8883963B2 (Cadila Healthcare Limited, priority 2007, dated 2014)
Starred links: 1 amine or outer side, 2 acyl side, 3 side chain; linkers in the order of their positions; H or OH if unused. Non-standard residues stand in square brackets, D forms with d. Residues, ends and D or L forms follow the SMILES beside them. ξ: configuration not given here. *: point of attachment. X9 = CCc1cc(OC)ccc1-c1ccc(CC(NC(=S)[C@H](CC(=O)O)N*)C(=S)NC(CCCc2ccccc2F)C(N)=O)cc1; X8 = CCc1cc(OC)ccc1-c1ccc(CC(NC(=S)[C@H](CC(=O)O)N*)C(=S)NC(CCCc2ccccc2)C(N)=O)cc1; X7 = CCc1cc(OC)ccc1-c1ccc(CC(CNC(CCCc2ccccc2)C(N)=O)N*)cc1; ξBip(2'-Et-4'-OMe) = CCc1cc(OC)ccc1-c1ccc(CC(N)C(=O)O)cc1; X6 = O=C(C(CCCc1ccc(Cl)cc1Cl)N[*:1])[*:2]; ξαMePhe(2-F) = CC(N)(Cc1ccccc1F)C(=O)O; aThr = C[C@H](O)[C@H](N)C(=O)O; Aib = CC(C)(N)C(=O)O; Moc = COC(=O)*

Molecular target: T1, human glucagon receptor (Homo sapiens, UniProt P47871)
T1 construct: The full-length cDNA was cloned in pcDNA3.1 (Invitrogen); expressed in transfected cells
T1 sequence (P47871 26-477): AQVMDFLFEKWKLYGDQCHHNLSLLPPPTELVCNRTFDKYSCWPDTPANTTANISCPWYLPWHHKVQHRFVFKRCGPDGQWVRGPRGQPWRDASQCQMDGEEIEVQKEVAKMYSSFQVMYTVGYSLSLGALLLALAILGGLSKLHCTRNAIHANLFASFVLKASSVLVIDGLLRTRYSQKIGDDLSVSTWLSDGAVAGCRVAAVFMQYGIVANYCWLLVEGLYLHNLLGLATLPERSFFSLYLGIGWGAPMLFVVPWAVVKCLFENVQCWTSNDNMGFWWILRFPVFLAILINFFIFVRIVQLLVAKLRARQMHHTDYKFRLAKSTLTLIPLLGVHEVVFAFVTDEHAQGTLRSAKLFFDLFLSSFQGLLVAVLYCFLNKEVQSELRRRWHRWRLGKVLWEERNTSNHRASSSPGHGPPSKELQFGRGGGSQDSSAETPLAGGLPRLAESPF
Assay: In vitro human glucagon antagonist activity (inhibition of cAMP production) in CHO/human glucagon R cells
Assay type: cell-based
Settings: with saturated concentration of glucagon peptide
Method: The CHO-K1 cells (CRL 9618) were obtained from American Type Culture Collection (Rockville, Md.). CHO cells were grown in Ham's F12 medium containing L-Glutamine (2 mM), HEPES (25 mM), NaHCO3 (1.1 g/L) and supplemented with newborn Calf Serum (NBCS; 10%), Penicillin (50 U/ml (v/v)) and Streptomycin (50 ug/ml (v/v)). Cells were split every 3 days 1:8.
The full-length cDNA was cloned in pcDNA3.1 (Invitrogen). […] Clones expressing the receptor were generated by G418 (800 μg/ml active, Sigma) selection. The stable clones were thereafter maintained at 500 ug/ml (G418). The selected clone was used between passages 9-25 for cAMP assays.
The cells were trypsinized using 2 ml of TPVG (0.25% trypsin, 0.53 mM EDTA, 1.38-mM glucose). The trypsin was inactivated using Ham's F12 medium containing 10% NBCS and the cells were suspended in 2 ml of complete medium. […] The medium was aspirated off from the 12 well plate and the cells were washed once using Ham's F12 (plain). The cells were incubated at 37° C. with 500 ul of Ham's F12+1% BSA+0.125 mM RO-20 for 30 min. […] After the incubation, the medium was removed and cells were washed once with plain Ham's F12. Subsequently, the cells were lysed by adding 500 ul of ice cold 0.1 N HCl to each well and shaking for 30 minutes at 200 rpm. The cells were then scrapped, the lysate was collected in micro centrifuge tubes and centrifuged at 12000 rpm for 10 min to remove the debris. 300 ul of supernatant from each micro-centrifuge tube was then removed into a glass tube and dried under N2 for 30 min, for cAMP estimation. The total cAMP was estimated from the sample according to the manufacturer's protocol using Cyclic AMP immunoassay kit (R&D systems, Minneapolis. MN). The remaining supernatant is used to determine the protein concentration using micro BCA (Sigma). Data is calculated as percent of control (Vehicle: water) and expressed as Mean+SD.

SMILES	Human Glucagon receptor antagonistic activity shown as inhibition of cAMP production of Glucagon peptide (1 nM test compound) [pmol/ml/μg prt]	Human Glucagon receptor antagonistic activity shown as inhibition of cAMP production of Glucagon peptide (10 nM test compound) [pmol/ml/μg prt]	Human Glucagon receptor antagonistic activity shown as inhibition of cAMP production of Glucagon peptide (100 nM test compound) [pmol/ml/μg prt]	Human Glucagon receptor antagonistic activity shown as inhibition of cAMP production of Glucagon peptide (1 μM test compound) [pmol/ml/μg prt]	Human Glucagon receptor antagonistic activity shown as inhibition of cAMP production of Glucagon peptide (10 μM test compound) [pmol/ml/μg prt]
CCc1cc(OC)ccc1-c1ccc(CC(CNC(CCCc2ccccc2)C(N)=O)NC(=O)[C@H](CC(=O)O)NC(=O)[C@H](CO)NC(=O)[C@@H](NC(=O)C(C)(Cc2ccccc2F)NC(=O)[C@@H](NC(=O)CNC(=O)[C@H](CCC(N)=O)NC(=O)C(C)(C)NC(=O)[C@@H](N)Cc2c[nH]cn2)[C@H](C)O)[C@H](C)O)cc1 (stereo partly shown) [compound 189] (H-H[Aib]QG[aThr][ξαMePhe(2-F)][aThr]SD-X7)	3 ± 0.12	1 ± 0.12	0	0	0
CCc1cc(OC)ccc1-c1ccc(CC(NC(=O)[C@H](CC(=O)O)NC(=O)[C@H](CO)NC(=O)[C@@H](NC(=O)[C@H](Cc2ccccc2)NC(=O)[C@@H](NC(=O)CNC(=O)[C@H](CCC(N)=O)NC(=O)[C@H](CO)NC(=O)[C@@H](N)Cc2c[nH]cn2)[C@@H](C)O)[C@@H](C)O)C(=O)NC(CCCc2ccc(Cl)cc2Cl)C(N)=O)cc1 (stereo partly shown) [compound 51] (H-HSQGTFTSD[ξBip(2'-Et-4'-OMe)][X6]-NH2)	5 ± 0.09	3 ± 0.11	0	0	0
CCc1cc(OC)ccc1-c1ccc(CC(NC(=O)[C@H](CC(=O)O)NC(=O)[C@H](CO)NC(=O)[C@@H](NC(=O)[C@H](Cc2ccccc2)NC(=O)[C@@H](NC(=O)CNC(=O)[C@H](CCC(N)=O)NC(=O)[C@H](CO)NC(=O)[C@@H](N)Cc2c[nH]cn2)[C@@H](C)O)[C@@H](C)O)C(=O)NC(CCCc2ccccc2)C(N)=O)cc1 (single isomer, unassigned) [compound 5]	6 ± 0.02	5 ± 0.04	3 ± 0.14	0	0
CCc1cc(OC)ccc1-c1ccc(CC(CNC(CCCc2ccccc2F)C(N)=O)NC[C@H](CC(=O)O)NC(=O)[C@H](CO)NC(=O)[C@@H](NC(=O)C(C)(Cc2ccccc2F)NC(=O)[C@@H](NC(=O)CNC(=O)[C@H](CCC(N)=O)NC(=O)C(C)(C)NC(=O)[C@H](Cc2c[nH]cn2)NC(C)=O)[C@H](C)O)[C@H](C)O)cc1 (single isomer, unassigned) [compound 199]	4 ± 0.06	3 ± 0.11	0	0	0
CCc1cc(OC)ccc1-c1ccc(CC(NC(=S)[C@H](CC(=O)O)NC(=O)[C@H](CO)NC(=O)[C@@H](NC(=O)C(C)(Cc2ccccc2F)NC(=O)[C@@H](NC(=O)CNC(=O)[C@H](CCC(N)=O)NC(=O)C(C)(C)NC(=O)[C@H](Cc2c[nH]cn2)NC(=O)OC)[C@@H](C)O)[C@@H](C)O)C(=S)NC(CCCc2ccccc2)C(N)=O)cc1 (single isomer, unassigned) [compound 170]	6 ± 0.05	5 ± 0.04	2 ± 0.16	0	0
CCc1cc(OC)ccc1-c1ccc(CC(NC(=O)[C@H](CC(=O)O)NC(=O)[C@H](CO)NC(=O)[C@@H](NC(=O)[C@H](Cc2ccccc2)NC(=O)[C@@H](NC(=O)CNC(=O)[C@H](CCC(N)=O)NC(=O)C2(C)CCCN2C(=O)[C@@H](N)Cc2c[nH]cn2)[C@@H](C)O)[C@@H](C)O)C(=O)NC(CCCc2cccc(Cl)c2)C(N)=O)cc1 (single isomer, unassigned) [compound 11]	3 ± 0.04	0	0	0	0
CCc1cc(OC)ccc1-c1ccc(CC(NC(=S)[C@H](CC(=O)O)NC(=O)[C@H](CO)NC(=O)[C@@H](NC(=O)C(C)(Cc2ccccc2F)NC(=O)[C@@H](NC(=O)CNC(=O)[C@H](CCC(N)=O)NC(=O)C(C)(C)NC(=O)[C@@H](N)Cc2c[nH]cn2)[C@H](C)O)[C@H](C)O)C(=S)NC(CCCc2ccccc2)C(N)=O)cc1 (stereo partly shown) [compound 177] (H-H[Aib]QG[aThr][ξαMePhe(2-F)][aThr]S-X8)	0	0	0	0	0
CCc1cc(OC)ccc1-c1ccc(CC(NC(=S)[C@H](CC(=O)O)NC(=O)[C@H](CO)NC(=O)[C@@H](NC(=O)C(C)(Cc2ccccc2F)NC(=O)[C@@H](NC(=O)CNC(=O)[C@H](CCC(N)=O)NC(=O)C(C)(C)NC(=O)[C@H](Cc2c[nH]cn2)NC(=O)OC)[C@@H](C)O)[C@@H](C)O)C(=S)NC(CCCc2ccccc2F)C(N)=O)cc1 (stereo partly shown) [compound 172] (Moc-H[Aib]QGT[ξαMePhe(2-F)]TS-X9)	4 ± 0.16	2 ± 0.11	0	0	0
